Measured values reported in patent US20180305657A1, “Bioactive Fungi” (Agriculture Victoria Services PTY LTD, priority 2015, published 2018).
Read-outs that look alike come from different tables or passages of the source.

Key:
Tribolium castaneum = test system: Tribolium castaneum
Experimental: A total of 20 chemical standards were evaluated for their insecticidal activity against the stored grain pest, Tribolium castaneum. These chemical standards represented compounds in the volatolome of Daldinia sp. or were structural analogues of these compounds (Table 5). […] The insect pest was inoculated on to one half of the Petri plate by placing 4 insects onto feed (wheat flour and yeast). A chemical standard was then aliquoted (5 microlitre) on to the other half of the Petri plate on filter paper. Plates were immediately sealed with Parafilm®, covered in aluminium foil (i.e. in the dark) and maintained at room temperature. The mortality of insects was monitored daily by assessing insect movement as an indicator of mortality. The mortality was calculated by comparing the number of dead insects to the total number in the plate, and expressed as percentage mortality (Tables 6). Data were analysed using ANOVA as performed in GenStat, version 14. The experiment was fully randomised with 5 replicates for each endophyte.

T. castaneum = test system: T. castaneum
Experimental: The bioassays were conducted in 1 litre Schott bottles. The insect pest was inoculated into the bioassay by placing 9-12 insects onto feed (wheat flour and yeast). The biocidal compounds were then aliquoted into the bioassay at volumes ranging from 20-200 microlitres, ensuring no direct contact with the insect. Bottles were immediately sealed with Parafilm® and maintained at room temperature. The mortality of insects was monitored daily for three days exposure, by assessing insect movement as an indicator of mortality. The mortality was calculated by comparing the number of dead insects to the total number in the bioassay, and expressed as percentage mortality. Data were analysed using ANOVA as performed in GenStat, version 14. The experiment was fully randomised with 4 replicates for each endophyte.

Pseudomonas syringae = assay: Bactericidal bioassay, compounds alone or in synergy; assay type: cell-based; details: for activity against P. syringae: used alone (acetaldehyde, isovaleraldehyde: alone or in combination); for Growth Scale: compound alone, 10 μL, 3 days, 2 equivalent growth to control, 1 less growth, 0 no growth
Description: A bactericidal bioassay was established to evaluate the effect of the most insecticidal candidate compounds against the plant pathogenic bacterium Pseudomonas syringae, when applied alone or in synergy with other compounds from the volatolome of Daldinia sp. The pathogen was inoculated on to one third of the Petri plate by streaking bacterial cells from an actively growing culture (overnight) on to nutrient agar (NA). A candidate compound was then aliquoted (10 microlitres—except Acetaldehyde: 20 microlitres due to high volatility) onto another third of the Petri plate on filter paper. […] An untreated control was included and consisted of no compounds.

Fusarium verticillioides = assay: Fungicidal bioassay, compounds alone or in synergy; assay type: cell-based; details: for fungicidal activity against F. verticillioides: in isolation; for inhibition of growth of the pathogen: in isolation and in combination with any of the compounds tested; for % Inhibition (v control): 4 days
Description: A fungicidal bioassay was established to evaluate the effect of key compounds from the volatolome of Daldinia sp. against the plant pathogenic fungus, Fusarium verticillioides, when applied alone and in synergy with other compounds from the volatolome of Daldinia sp. The pathogen was inoculated on to one third of the Petri plate by placing an agar plug of actively growing hyphae onto PDA. Candidate compounds were then aliquoted (10 microlitres) on to another third of the Petri plate on filter paper. […] After 4 days the growth of the pathogen was determined by measuring the radius of the colony (on two alternate planes).

SMILES: CCC(C)CO (stereo not shown) [2-Methyl-1-butanol]
- % Mortality Day 1 (Tribolium castaneum; 5 microlitre, Day 1): 80.0%
- % Mortality Day 2 (Tribolium castaneum; 5 microlitre, Day 2): 80.0%
- % Mortality Day 3 (Tribolium castaneum; 5 microlitre, Day 3): 80.0%
- % Mortality Day 4 (Tribolium castaneum; 5 microlitre, Day 4): 80.0%

SMILES: CC(=O)CCO [4-Hydroxy-2-butanone]
- % Mortality Day 1 (Tribolium castaneum; 5 microlitre, Day 1): 4.0%
- % Mortality Day 2 (Tribolium castaneum; 5 microlitre, Day 2): 4.0%
- % Mortality Day 3 (Tribolium castaneum; 5 microlitre, Day 3): 4.0%
- % Mortality Day 4 (Tribolium castaneum; 5 microlitre, Day 4): 4.0%

SMILES: C=C1CCCCC1 [Methylenecyclohexane]
- % Mortality Day 1 (Tribolium castaneum; 5 microlitre, Day 1): 8.0%
- % Mortality Day 2 (Tribolium castaneum; 5 microlitre, Day 2): 8.0%
- % Mortality Day 3 (Tribolium castaneum; 5 microlitre, Day 3): 16.0%
- % Mortality Day 4 (Tribolium castaneum; 5 microlitre, Day 4): 16.0%

SMILES: CC=O [Acetaldehyde]
- mortality after a 1 day exposure, 20 μL (T. castaneum; Volume 20 μL in 1 litre bottle, 1 day): 2.3%
- mortality after a 1 day exposure, 50 μL (T. castaneum; Volume 50 μL in 1 litre bottle, 1 day): 28.3%
- mortality after a 1 day exposure, 100 μL (T. castaneum; Volume 100 μL in 1 litre bottle, 1 day): 98.2%
- mortality after a 1 day exposure, 150 μL (T. castaneum; Volume 150 μL in 1 litre bottle, 1 day): 100%
- mortality after a 1 day exposure, 200 μL (T. castaneum; Volume 200 μL in 1 litre bottle, 1 day): 100%
- mortality after a 1 day exposure (T. castaneum; volumes ranging from 100-200 microlitres): 98.2-100.0%
- activity against P. syringae (Pseudomonas syringae): high bactericidal activity
- % Mortality Day 1 (Tribolium castaneum; 5 microlitre, Day 1): 36.0%
- % Mortality Day 2 (Tribolium castaneum; 5 microlitre, Day 2): 36.0%
- % Mortality Day 3 (Tribolium castaneum; 5 microlitre, Day 3): 36.0%
- % Mortality Day 4 (Tribolium castaneum; 5 microlitre, Day 4): 36.0%
- fungicidal activity against F. verticillioides (Fusarium verticillioides): high fungicidal activity
- inhibition of growth of the pathogen (Fusarium verticillioides): 100%

SMILES: O=Cc1ccccc1 [Benzaldehyde]
- % Mortality Day 1 (Tribolium castaneum; 5 microlitre, Day 1): 0.0%
- % Mortality Day 2 (Tribolium castaneum; 5 microlitre, Day 2): 0.0%
- % Mortality Day 3 (Tribolium castaneum; 5 microlitre, Day 3): 0.0%
- % Mortality Day 4 (Tribolium castaneum; 5 microlitre, Day 4): 0.0%

SMILES: CC1=CCC=CC1 [1-Methyl-1,4-cyclohexadiene]
- % Mortality Day 1 (Tribolium castaneum; 5 microlitre, Day 1): 0.0%
- % Mortality Day 2 (Tribolium castaneum; 5 microlitre, Day 2): 0.0%
- % Mortality Day 3 (Tribolium castaneum; 5 microlitre, Day 3): 0.0%
- % Mortality Day 4 (Tribolium castaneum; 5 microlitre, Day 4): 0.0%

SMILES: CC(=O)C(C)O (stereo not shown) [Acetoin, acetoin]
- mortality after a 1 day exposure (T. castaneum; in vivo): 100%
- mortality after a 1 day exposure, 20 μL (T. castaneum; in vivo): 3%
- mortality after a 1 day exposure, 50 μL (T. castaneum; in vivo): 100%
- mortality after a 1 day exposure, 100 μL (T. castaneum; in vivo): 100%
- mortality after a 1 day exposure, 150 μL (T. castaneum; in vivo): 100%
- mortality after a 1 day exposure, 200 μL (T. castaneum; in vivo): 100%
- Growth Scale (Pseudomonas syringae): 2
- activity against P. syringae (Pseudomonas syringae): did not exhibit any activity
- % Mortality Day 1 (Tribolium castaneum; 5 microlitre, Day 1): 100.0%
- % Mortality Day 2 (Tribolium castaneum; 5 microlitre, Day 2): 100.0%
- % Mortality Day 3 (Tribolium castaneum; 5 microlitre, Day 3): 100.0%
- % Mortality Day 4 (Tribolium castaneum; 5 microlitre, Day 4): 100.0%
- % Inhibition (v control) (Fusarium verticillioides; compound alone, 10 uL): 0%
- fungicidal activity against F. verticillioides (Fusarium verticillioides): no activity

SMILES: CC(C)CC=O [Isovaleraldehyde]
- mortality after a 1 day exposure (T. castaneum; in vivo): 100%
- mortality after a 1 day exposure, 20 μL (T. castaneum; in vivo): 3%
- mortality after a 1 day exposure, 50 μL (T. castaneum; in vivo): 100%
- mortality after a 1 day exposure, 100 μL (T. castaneum; in vivo): 100%
- mortality after a 1 day exposure, 150 μL (T. castaneum; in vivo): 100%
- mortality after a 1 day exposure, 200 μL (T. castaneum; in vivo): 100%
- Growth Scale (Pseudomonas syringae): 0.25
- activity against P. syringae (Pseudomonas syringae): high bactericidal activity
- % Mortality Day 1 (Tribolium castaneum; 5 microlitre, Day 1): 100.0%
- % Mortality Day 2 (Tribolium castaneum; 5 microlitre, Day 2): 100.0%
- % Mortality Day 3 (Tribolium castaneum; 5 microlitre, Day 3): 100.0%
- % Mortality Day 4 (Tribolium castaneum; 5 microlitre, Day 4): 100.0%
- % Inhibition (v control) (Fusarium verticillioides; compound alone, 10 uL): 100.0%
- Activity (fungistatic or fungicidal) (Fusarium verticillioides; compound alone, 10 uL, plug on fresh PDA plate): Fungicidal
- fungicidal activity against F. verticillioides (Fusarium verticillioides): high fungicidal activity
- inhibition of growth of the pathogen (Fusarium verticillioides): 100%

SMILES: CCCC(=O)O [Butyric acid]
- % Mortality Day 1 (Tribolium castaneum; 5 microlitre, Day 1): 0.0%
- % Mortality Day 2 (Tribolium castaneum; 5 microlitre, Day 2): 0.0%
- % Mortality Day 3 (Tribolium castaneum; 5 microlitre, Day 3): 6.9%
- % Mortality Day 4 (Tribolium castaneum; 5 microlitre, Day 4): 6.9%

SMILES: CC(C)CCO [3-Methyl-1-butanol]
- % Mortality Day 1 (Tribolium castaneum; in vivo): 45.0%
- % Mortality Day 2 (Tribolium castaneum; in vivo): 45.0%
- % Mortality Day 3 (Tribolium castaneum; in vivo): 50.0%
- % Mortality Day 4 (Tribolium castaneum; in vivo): 50.0%

SMILES: C1=CC2(C=C1)CC2 [Spiro[2.4]hepta-4,6-diene]
- % Mortality Day 1 (Tribolium castaneum; 5 microlitre, Day 1): 87.1%
- % Mortality Day 2 (Tribolium castaneum; 5 microlitre, Day 2): 100.0%
- % Mortality Day 3 (Tribolium castaneum; 5 microlitre, Day 3): 100.0%
- % Mortality Day 4 (Tribolium castaneum; 5 microlitre, Day 4): 100.0%

SMILES: CC(=O)C(C)=O [2,3 Butanedione, 2,3-butanedione]
- % Mortality Day 1 (Tribolium castaneum; in vivo): 0.0%
- % Mortality Day 2 (Tribolium castaneum; in vivo): 0.0%
- % Mortality Day 3 (Tribolium castaneum; in vivo): 0.0%
- % Mortality Day 4 (Tribolium castaneum; in vivo): 0.0%
- mortality grouping in title of Table 5 (Tribolium castaneum; in vivo): 1,4-cyclohexadiene, Toluene, 2,3 Butanedione, Ethanol: 0% mortality).

SMILES: CCCC=O [Butyraldehyde]
- % Mortality Day 1 (Tribolium castaneum; in vivo): 31.5%
- % Mortality Day 2 (Tribolium castaneum; in vivo): 39.5%
- % Mortality Day 3 (Tribolium castaneum; in vivo): 39.5%
- % Mortality Day 4 (Tribolium castaneum; in vivo): 39.5%

SMILES: CC1CC=CCC1 (stereo not shown) [4-Methylcyclohexene]
- % Mortality Day 1 (Tribolium castaneum; 5 microlitre, Day 1): 4.0%
- % Mortality Day 2 (Tribolium castaneum; 5 microlitre, Day 2): 13.7%
- % Mortality Day 3 (Tribolium castaneum; 5 microlitre, Day 3): 17.7%
- % Mortality Day 4 (Tribolium castaneum; 5 microlitre, Day 4): 17.7%

SMILES: CCC(O)CC [3-Pentanol]
- mortality after a 1 day exposure, 20 μL (T. castaneum; in vivo): 100%
- mortality after a 1 day exposure, 50 μL (T. castaneum; in vivo): 100%
- mortality after a 1 day exposure, 100 μL (T. castaneum; in vivo): 100%
- mortality after a 1 day exposure, 150 μL (T. castaneum; in vivo): 100%
- mortality after a 1 day exposure, 200 μL (T. castaneum; in vivo): 100%
- mortality after one day (T. castaneum; in vivo): 100%
- Growth Scale (Pseudomonas syringae): 2
- activity against P. syringae (Pseudomonas syringae): did not exhibit any activity
- % Mortality Day 1 (Tribolium castaneum; 5 microlitre, Day 1): 100.0%
- % Mortality Day 2 (Tribolium castaneum; 5 microlitre, Day 2): 100.0%
- % Mortality Day 3 (Tribolium castaneum; 5 microlitre, Day 3): 100.0%
- % Mortality Day 4 (Tribolium castaneum; 5 microlitre, Day 4): 100.0%
- % Inhibition (v control) (Fusarium verticillioides; compound alone, 10 uL): 47.3%
- fungicidal activity against F. verticillioides (Fusarium verticillioides): moderate fungicidal activity

SMILES: C1=CCCCC=C1 [1,3 Cycloheptadiene, 1,3-cycloheptadiene]
- % Mortality Day 1 (Tribolium castaneum; 5 microlitre, Day 1): 12.5%
- % Mortality Day 2 (Tribolium castaneum; 5 microlitre, Day 2): 20.8%
- % Mortality Day 3 (Tribolium castaneum; 5 microlitre, Day 3): 27.5%
- % Mortality Day 4 (Tribolium castaneum; 5 microlitre, Day 4): 27.5%

SMILES: CCO [Ethanol]
- % Mortality Day 1 (Tribolium castaneum; in vivo): 0.0%
- % Mortality Day 2 (Tribolium castaneum; in vivo): 0.0%
- % Mortality Day 3 (Tribolium castaneum; in vivo): 0.0%
- % Mortality Day 4 (Tribolium castaneum; in vivo): 0.0%
- mortality grouping in title of Table 5 (Tribolium castaneum; in vivo): 1,4-cyclohexadiene, Toluene, 2,3 Butanedione, Ethanol: 0% mortality).

SMILES: CCCC(C)O (stereo not shown) [2-Pentanol]
- % Mortality Day 1 (Tribolium castaneum; 5 microlitre, Day 1): 0.0%
- % Mortality Day 2 (Tribolium castaneum; 5 microlitre, Day 2): 0.0%
- % Mortality Day 3 (Tribolium castaneum; 5 microlitre, Day 3): 0.0%
- % Mortality Day 4 (Tribolium castaneum; 5 microlitre, Day 4): 0.0%
